In brackets after ≈: the same amount, converted by molar mass.
Legend:
[1] = tested on: HCT-116; assay: Induction of apoptosis in human HCT116 cells after 48 hrs by annexin V-FITC/propidium iodide staining-based flow cytometric method; type: functional, cell-based
[2] = tested on: MCF7; assay: Antiproliferative activity in human MCF7 cells after 72 hrs by MTT assay; type: functional, cell-based; settings: MCF7, 72 h
[3] = tested on: HCT-116; assay: Induction of apoptosis in human HCT116 cells at 4 uM after 48 hrs by annexin V-FITC/propidium iodide staining-based flow cytometric method; type: functional
[4] = tested on: A549; assay: Antiproliferative activity in human A549 cells after 72 hrs by MTT assay; type: functional, cell-based; settings: A549, 72 h
[5] = Aqueous solubility of the compound in water after 48 hrs by UV spectrophotometer; type: physicochemical
[6] = tested on: HCT-116; assay: Antiproliferative activity in human HCT116 cells after 72 hrs by MTT assay; type: functional, cell-based; settings: HCT-116, 72 h
[7] = tested on: HCT-116; assay: Potency index, ratio of 5-FU IC50 to compound IC50 for human HCT116 cells; type: functional
[8] = tested on: HCT-116; assay: Induction of apoptosis in human HCT116 cells assessed as downregulation of cyclin B protein level after 24 hrs by Western blot method; type: functional, cell-based
[9] = tested on: HCT-116; assay: Cell cycle arrest in human HCT116 cells assessed as decrease in cell population at G0/G1 phase after 24 hrs by propidium iodide staining-based flow cytometric analysis; type: functional
[10] = tested on: HCT-116; assay: Cell cycle arrest in human HCT116 cells assessed as accumulation at G2/M phase after 24 hrs by propidium iodide staining-based flow cytometric analysis; type: functional
[11] = tested on: Bel-7402; assay: Antiproliferative activity in human Bel7402 cells after 72 hrs by MTT assay; type: functional, cell-based; settings: Bel-7402, 72 h
[12] = tested on: HCT-116; assay: Induction of apoptosis in human HCT116 cells assessed as downregulation of CDK1 protein level after 24 hrs by Western blot method; type: functional, cell-based
[13] = tested on: HepG2; assay: Potency index, ratio of 5-FU IC50 to compound IC50 for human HepG2 cells; type: functional
[14] = tested on: HepG2; assay: Antiproliferative activity in human HepG2 cells after 72 hrs by MTT assay; type: functional, cell-based; settings: HepG2, 72 h
[15] = tested on: Bel-7402; assay: Antiproliferative activity in 5-FU resistant human Bel7402 cells after 72 hrs by MTT assay; type: functional, cell-based; settings: Bel-7402, 72 h
[16] = tested on: A549; assay: Antiproliferative activity against human A549 cells
[17] = tested on: Bel-7402; assay: Antiproliferative activity against human Bel7402 cells after 24 to 72 hrs by MTT assay; type: functional, cell-based
[18] = tested on: HL-60; assay: Antiproliferative activity against human HL60 cells; type: functional, cell-based
[19] = tested on: SCC-4; assay: Antiproliferative activity against human SCC4 cells; type: functional, cell-based
[20] = Antiproliferative activity against human nasopharyngeal carcinoma cells; type: functional, cell-based; settings: Nasopharyngeal carcinoma cell
[21] = tested on: HepG2; assay: Antiproliferative activity against human HepG2 cells
[22] = tested on: MCF7; assay: Antiproliferative activity against human MCF7 cells; type: functional, cell-based
[23] = tested on: SGC-7901; assay: Antiproliferative activity against human SGC7901 cells after 24 to 72 hrs by MTT assay; type: functional, cell-based

| SMILES | IC50 [2] [µM] | IC50 [4] [µM] | solubility at 48 h [5] [mg/mL] | IC50 [6] [µM] | IC50 [14] [µM] | other results |
| --- | --- | --- | --- | --- | --- | --- |
| Cl.Cl.O=C(OCCCCCCN1CCN(CCO)CC1)c1cc(O)c2c(c1)C(=O)c1cccc(O)c1C2=O | 7.63 | 5.28 | 15.1 | 0.31 | 0.85 | Activity [1]: Dose-dependent effect; Activity [3]: 56.08%; Ratio IC50 [7]: 5 - 18; Activity [8]: Dose-dependent effect; Activity [9]: Dose-dependent effect; Activity [10]: Dose-dependent effect; IC50 [11]: 2.36 µM; Activity [12]: Dose-dependent effect; Ratio IC50 [13]: 5 - 18; IC50 [15]: 4.48 µM |
| CCN(CC)CCCCCOC(=O)c1cc(O)c2c(c1)C(=O)c1cccc(O)c1C2=O.Cl | 15.2 | 27.3 | 12.4 | 9.05 | 12.2 |  |
| O=C(O)c1cc(O)c2c(c1)C(=O)c1cccc(O)c1C2=O [RHEIN] | 106 | 120 | 0.0456 (≈ 160 µM) | 116 | 101 | IC50 [16]: 80 µM; IC50 [17]: 110 µM; IC50 [11]: 120 µM; IC50 [18]: 100 µM; IC50 [19]: 58 µM; IC50 [20]: 140 µM; IC50 [21]: 710 µM; IC50 [22]: 130 µM; IC50 [15]: 136 µM; IC50 [23]: 150 µM |
| CCN(CC)CCCOC(=O)c1cc(O)c2c(c1)C(=O)c1cccc(O)c1C2=O.Cl | 8.28 | 6.23 | 13.6 | 0.65 | 2.94 |  |
| Cl.O=C(OCCCCCN1CCCCC1)c1cc(O)c2c(c1)C(=O)c1cccc(O)c1C2=O | 1.95 | 8.69 | 10.3 | 5.28 | 6.12 |  |
| O=c1[nH]cc(F)c(=O)[nH]1 [FLUOROURACIL] | 4.32 | 10.3 |  | 4.3 | 5.82 | IC50 [11]: 7.57 µM; IC50 [15]: 214 µM |
| CCN1CCN(CCCCCCOC(=O)c2cc(O)c3c(c2)C(=O)c2cccc(O)c2C3=O)CC1.Cl.Cl | 3.25 | 6.42 | 10.2 | 1.93 | 1.47 |  |
| Cl.Cl.O=C(OCCCCN1CCN(CCO)CC1)c1cc(O)c2c(c1)C(=O)c1cccc(O)c1C2=O | 4 | 2.5 | 12 | 0.85 | 3.65 |  |
| Cl.O=C(OCCCN1CCCCC1)c1cc(O)c2c(c1)C(=O)c1cccc(O)c1C2=O | 7.74 | 5.41 | 11.3 | 0.77 | 3.44 |  |
| Cl.O=C(OCCCCN1CCOCC1)c1cc(O)c2c(c1)C(=O)c1cccc(O)c1C2=O | 24.4 | 21.4 | 11.7 | 3.29 | 6.23 |  |
| Cl.Cl.O=C(OCCCN1CCN(CCO)CC1)c1cc(O)c2c(c1)C(=O)c1cccc(O)c1C2=O | 8.86 | 7.11 | 12.2 | 0.71 | 4.02 |  |
| CN1CCN(CCCOC(=O)c2cc(O)c3c(c2)C(=O)c2cccc(O)c2C3=O)CC1.Cl.Cl | 11.4 | 8.41 | 13.3 | 3.75 | 4.93 |  |
| CN1CCN(CCCCCOC(=O)c2cc(O)c3c(c2)C(=O)c2cccc(O)c2C3=O)CC1.Cl.Cl | 1.13 | 6.32 | 13.7 | 1.5 | 2.95 |  |

Source: ChEMBL document CHEMBL3994562 (Medchemcomm, 2016)
